Among the data in patent US11098055B2, “Ester ACC inhibitors and uses thereof” (Gilead Apollo, LLC, priority 2015, dated 2021) are MIC and IC90 values, retold here.

≈ marks a conversion by molar mass, not a printed value. Like-named read-outs stand apart in the source and are kept apart here.

Experiment [1] relates to C. krusei ATCC 6258. The experiment is described as follows: Anti-Fungal (Candida) Activity Assay, broth microtiter MIC. Format: cell-based, Candida krusei. As to conditions: Pichia kudriavzevii, ATCC6258, 48 h, 3 replicates, MIC read at 48 h. In short, it runs like this:
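Broth microdilution per CLSI M27-A3 in RPMI 1640 + MOPS, at a final inoculum of 2.5×10^3 CFU/mL. Compound DMSO stocks were diluted in water to a 128 μg/mL working solution. MIC was read visually against the growth control at 48 h.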

Experiment [2] relates to Phytophthora capsici (Pc). The experiment is described as follows: Growth inhibition assay of fungal pathogens. Format: cell-based. As to conditions: 48 h, read-out: Concentration at 90% Inhibition Pc. In a few lines:
(§1)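 Spore suspension in 17% V8 broth; cpd final 50/10/2 or 2/0.4/0.08 ppm, 2% DMSO. OD600 at 24 + 48 h, media blank subtracted, plus visual scoring. % inhibition at 48 h vs DMSO control.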

For experiment [3], the system named is Septoria tritici (St). In words: Growth inhibition assay of fungal pathogens. The experiment is classed as cell-based. As to conditions: Zymoseptoria tritici, 48 h, read-out: Concentration at 90% Inhibition St. In a few lines:
as §1

Experiment [4] deals with Rhizoctonia solani (Rs). The experiment is described as follows: Growth inhibition assay of fungal pathogens. Format: cell-based. As to conditions: 48 h, read-out: Concentration at 90% Inhibition Rs. In a few lines: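 Spores, or mycelial plugs for Rhizoctonia, in 17% V8 medium (¼ PDB for plugs) were exposed to compound at final 50, 10 and 2 ppm or 2, 0.4 and 0.08 ppm, with 2% DMSO. Growth was read by OD600 with blank subtraction plus visual rating; percent inhibition at 48 h is relative to 2% DMSO control.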

Experiment [5] concerns Diplodia maydis (Dm). In words: Growth inhibition assay of fungal pathogens. Format: cell-based. As to conditions: Stenocarpella maydis, 48 h, read-out: Concentration at 90% Inhibition Dm. In short, it runs like this:
as §1

Experiment [6] has as its system Fusarium virguliforme (Fv). In words: Growth inhibition assay of fungal pathogens. As to conditions: 48 h, read-out: Concentration at 90% Inhibition Fv. The experiment is classed as cell-based. In a few lines: as §1
Experiment [7] has as its system Collectotrichum graminicola (Cg). In words: Growth inhibition assay of fungal pathogens. The experiment is classed as cell-based. As to conditions: 48 h, read-out: Concentration at 90% Inhibition Cg. In short, it runs like this: as §1
The test system of experiment [8] is Fusarium moniliforme (Fm). The experiment is described as follows: Growth inhibition assay of fungal pathogens. The experiment is classed as cell-based. As to conditions: Fusarium verticillioides, 48 h, read-out: Concentration at 90% Inhibition Fm. In short, it runs like this:
as §1

For experiment [9], the system named is Botrtyis cinerea (Bc). The experiment is described as follows: Growth inhibition assay of fungal pathogens. Format: cell-based. As to conditions: 48 h, read-out: Concentration at 90% Inhibition Bc. In short, it runs like this:
as §1

Take `CCOC(=O)c1sc2c(c1C)c(=O)n(C(C)(C)C(=O)NC(C)C)c(=O)n2C[C@H](OCCO)c1cc(F)ccc1OC` [Compound I-18, (R)-ethyl 1-(2-(5-fluoro-2-methoxyphenyl)-2-(2-hydroxy-ethoxy)ethyl)-3-(1-(isopropylamino)-2-methyl-1-oxopropan-2-yl)-5-methyl-2,4-dioxo-1,2,3,4-tetrahydrothieno[2,3-d]pyrimidine-6-carboxylate]: the MIC in experiment [1] (Table 3a) and in experiment [1] (Table 3b (additional results)) was 0.25 to 1 µg/mL (≈ 0.421 to 1.68 µM) in each case. For the same compound, the IC90 in [2] (Table 4a) was no less than 50 µg/mL; in experiment [2] (Table 4b) it was no less than 50 µg/mL; in experiment [3] (Table 4a), no less than 50 µg/mL; in [3] (Table 4b), no less than 50 µg/mL; in [4] (Table 4a) it was 0.08 µg/mL (≈ 0.135 µM); in [4] (Table 4b), 0.08 µg/mL (≈ 0.135 µM). In addition, the IC90 in experiment [5] (Table 4a) came out at 0.4 µg/mL (≈ 0.674 µM); in [5] (Table 4b), 0.4 µg/mL (≈ 0.674 µM); in experiment [6] (Table 4a) it was 2 µg/mL (≈ 3.37 µM); in [6] (Table 4b) it was 2 µg/mL (≈ 3.37 µM); in [7] (Table 4a), 0.4 µg/mL (≈ 0.674 µM); in experiment [7] (Table 4b), 0.4 µg/mL (≈ 0.674 µM). In addition, the IC90 amounted to 0.08 µg/mL (≈ 0.135 µM) in [8] (Table 4a), 0.08 µg/mL (≈ 0.135 µM) in experiment [8] (Table 4b), 2 µg/mL (≈ 3.37 µM) in experiment [9] (Table 4a) and 2 µg/mL (≈ 3.37 µM) in [9] (Table 4b).

Regarding `CCOC(=O)c1sc2c(c1C)c(=O)n(C(C)(C)C(=O)NC(C)C)c(=O)n2C[C@H](O)c1cc(F)ccc1OC` [Compound I-19, (R)-ethyl 1-(2-(5-fluoro-2-methoxyphenyl)-2-hydroxyethyl)-3-(1-(isopropylamino)-2-methyl-1-oxopropan-2-yl)-5-methyl-2,4-dioxo-1,2,3,4-tetrahydrothieno[2,3-d]pyrimidine-6-carboxylate], in [1] (Table 3b (additional results)), the minimum inhibitory concentration (MIC) (as a rule, the least concentration at which growth counts as inhibited) is 0.25 to 1 µg/mL (≈ 0.455 to 1.82 µM). Further, the IC90 in [2] (Table 4a) is no less than 50 µg/mL; in experiment [2] (Table 4b) it was no less than 50 µg/mL; in [3] (Table 4a), no less than 50 µg/mL; in [3] (Table 4b), no less than 50 µg/mL; in experiment [4] (Table 4a) it was 0.4 µg/mL (≈ 0.728 µM); in [4] (Table 4b) it was 0.4 µg/mL (≈ 0.728 µM). For the same compound, the IC90 in [5] (Table 4a) amounted to 2 µg/mL (≈ 3.64 µM); in experiment [5] (Table 4b), 2 µg/mL (≈ 3.64 µM); in experiment [6] (Table 4a), 0.08 µg/mL (≈ 0.146 µM); in experiment [6] (Table 4b), 0.08 µg/mL (≈ 0.146 µM); in experiment [7] (Table 4a) it was 2 µg/mL (≈ 3.64 µM); in experiment [7] (Table 4b), 2 µg/mL (≈ 3.64 µM). In addition, the IC90 in [8] (Table 4a) was determined as 0.08 µg/mL (≈ 0.146 µM); in experiment [8] (Table 4b) it was 0.08 µg/mL (≈ 0.146 µM); in experiment [9] (Table 4a), 0.4 µg/mL (≈ 0.728 µM); in experiment [9] (Table 4b), 0.4 µg/mL (≈ 0.728 µM).

With `CCOC(=O)c1sc2c(c1C)c(=O)n([C@@H](C)C(=O)NC(C)C)c(=O)n2C[C@H](OCCC#N)c1cc(F)ccc1OC` [Compound I-20, ethyl 1-((R)-2-(2-cyanoethoxy)-2-(5-fluoro-2-methoxy-phenyl)ethyl)-3-((S)-1-(isopropylamino)-1-oxopropan-2-yl)-5-methyl-2,4-dioxo-1,2,3,4-tetrahydrothieno[2,3-d]pyrimidine-6-carboxylate], in experiment [1] (Table 3b (additional results)), the MIC was in the range of 1.1 to 2 µg/mL (≈ 1.87 to 3.4 µM). In addition, the IC90 in [2] (Table 4b) is no less than 50 µg/mL; in [3] (Table 4b) it was no less than 50 µg/mL; in experiment [4] (Table 4b), no less than 50 µg/mL; in experiment [5] (Table 4b) it was 10 µg/mL (≈ 17 µM); in experiment [6] (Table 4b), 10 µg/mL (≈ 17 µM); in experiment [7] (Table 4b), 10 µg/mL (≈ 17 µM). The IC90 was found to be 0.4 µg/mL (≈ 0.68 µM) in experiment [8] (Table 4b) and 2 µg/mL (≈ 3.4 µM) in [9] (Table 4b).

`CCOC(=O)c1sc2c(c1C)c(=O)n([C@H](C)C(=O)NC(C)C)c(=O)n2C[C@H](OCCC#N)c1cc(F)ccc1OC` [Compound I-21, ethyl 1-((R)-2-(2-cyanoethoxy)-2-(5-fluoro-2-methoxyphenyl)ethyl)-3-((R)-1-(isopropylamino)-1-oxopropan-2-yl)-5-methyl-2,4-dioxo-1,2,3,4-tetrahydrothieno[2,3-d]pyrimidine-6-carboxylate] showed an MIC in [1] (Table 3b (additional results)) of 2.1 to 4 µg/mL (≈ 3.57 to 6.8 µM). The IC90 was 10 µg/mL (≈ 17 µM) in [2] (Table 4b); no less than 50 µg/mL in experiment [3] (Table 4b); 0.08 µg/mL (≈ 0.136 µM) in experiment [4] (Table 4b); 0.4 µg/mL (≈ 0.68 µM) in [5] (Table 4b); 0.4 µg/mL (≈ 0.68 µM) in experiment [6] (Table 4b); 0.4 µg/mL (≈ 0.68 µM) in [7] (Table 4b). Further, the IC90 came to 0.08 µg/mL (≈ 0.136 µM) in experiment [8] (Table 4b) and 0.4 µg/mL (≈ 0.68 µM) in experiment [9] (Table 4b).

`CCOC(=O)c1sc2c(c1C)c(=O)n(C(C)(C)C(=O)N1CCCC1)c(=O)n2C[C@H](O)c1cc(F)ccc1OC` [Compound I-22, (R)-ethyl 1-(2-(5-fluoro-2-methoxyphenyl)-2-hydroxyethyl)-5-methyl-3-(2-methyl-1-oxo-1-(pyrrolidin-1-yl)propan-2-yl)-2,4-dioxo-1,2,3,4-tetrahydrothieno[2,3-d]pyrimidine-6-carboxylate] returned an MIC in experiment [1] (Table 3b (additional results)) of 2.1 to 4 µg/mL (≈ 3.74 to 7.12 µM). Besides, the IC90 in [2] (Table 4b) is no less than 50 µg/mL; in experiment [3] (Table 4b), no less than 50 µg/mL; in experiment [4] (Table 4b) it was 0.08 µg/mL (≈ 0.142 µM); in experiment [5] (Table 4b), no less than 50 µg/mL; in experiment [6] (Table 4b), 2 µg/mL (≈ 3.56 µM); in experiment [7] (Table 4b), 10 µg/mL (≈ 17.8 µM). Further, the IC90 in [8] (Table 4b) and in [9] (Table 4b) was 2 µg/mL (≈ 3.56 µM) each time.
